Data on four compounds can be found in patent US20260345568A1, “INHIBITING MONOACYLGLYCEROL LIPASE (MAGL)” (PSY THERAPEUTICS, INC., priority 2023, published 2026).

The target in one test is T1, human MAGL (Homo sapiens, UniProt Q99685).
T1 construct: recombinant MAGL enzyme (aa 2-303 RBC, internal preparation)
T1 sequence (Q99685 2-303): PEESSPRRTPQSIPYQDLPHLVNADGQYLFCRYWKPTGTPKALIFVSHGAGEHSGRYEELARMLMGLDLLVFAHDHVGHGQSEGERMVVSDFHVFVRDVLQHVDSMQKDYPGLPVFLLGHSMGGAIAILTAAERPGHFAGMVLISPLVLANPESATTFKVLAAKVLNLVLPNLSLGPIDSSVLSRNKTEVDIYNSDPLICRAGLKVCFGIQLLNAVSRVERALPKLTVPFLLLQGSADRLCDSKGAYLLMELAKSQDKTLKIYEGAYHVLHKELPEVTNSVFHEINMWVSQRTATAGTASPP
The test can be described thus: MAGL inhibition potency, 4-nitrophenyl acetate (4NPA) hydrolysis, absorbance 405 nm (Example A). Format: biochemical. Particulars: Method 12: Reaction Biology MAGL enzyme, 15 nM; 4NPA substrate; read-out: MAGL Potency (Detection Method). An excerpt:
The potency of certain compounds for inhibiting MAGL were obtained using the following assays.
The monoacylglycerol lipase inhibitor screening assay kit from Cayman Chemical was used to measure the MAGL potency for the compounds in Tables A-1, A-2, A-3.
Cayman's Monoacylglycerol Lipase Inhibitor Screening Assay provides a method for screening human MAGL inhibitors. MAGL hydrolyzes 4-nitrophenylacetate resulting in a yellow product, 4-nitrophenol, with an absorbance of 405-412 nm.
MAGL Inhibition was measured by the following assay. Monoacylglycerol Lipase (MAGL) inhibition was measured using recombinant MAGL enzyme (aa 2-303 RBC, internal preparation) and the substrate 4-Nitrophenyl acetate (4NPA) (Sigma-Aldrich, N8130). Hydrolysis of the substrate in the presence of the enzyme was measured by absorbance at 405 nm. 10 μL of assay buffer (10 mM Tris pH 7.5, 1 mM EDTA, 0.9% DMSO) was added to a black 384-well non-binding plate with clear bottom (Greiner, 781906) for each reaction. Compounds were dispensed using an acoustic liquid handler (Echo, Beckman) at 45 nL (0.1% DMSO). Test compounds and control for MAGL inhibitor JZL-184 (Caymen Chemical, 13158) were tested in 10-concentration IC50 mode with 3-fold serial dilution at a starting concentration of […]. DMSO control wells were included for reference. A 10.8 nM (1.8×) MAGL mix in assay buffer was prepared, with 25 μL added to each reaction well, for a final assay concentration of […]. No enzyme wells received 25 μL of buffer. Plate was incubated at room temperature for 30 minutes. 35 mM solution of 4NPA in methanol was prepared daily A 4.5×4NPA substrate solution was prepared in assay buffer and 10 μL was added to each reaction well, for a final assay concentration of 0.25 mM. Plate was spun for 1 minute at 1000 rpm before measuring absorbance using a CLARIOstar plate reader (BMG Labtech). A kinetic reading at 405 nm was done every minute for 30 minutes. Data was analyzed using the linear slope of the reaction progress curve and the average of the no-enzyme wells (background) was subtracted from the data. The background-subtracted slope data was converted to % activity using the average of wells with enzyme and DMSO vehicle. IC50s were calculated using GraphPad software (Sigmoidal dose response, variable slope equation).
Table 8 provides potency measurements of MAGL inhibition measured using the Potency Assay of Example A above, with the following modifications described in Table C.
The number after each letter for potency measurement value indicates the Method from Table C that was used to obtain that measurement value (e.g. “A(1)” indicates an IC50 measurement of <50 nM obtained from the Method 1 of Example A in Table C).

Another test deals with T2, human recombinant FAAH (Homo sapiens, UniProt O00519).
T2 construct: purchased Cayman Chemical 700302 (enzyme); kit Item No. 10005196
T2 sequence (O00519 1-579): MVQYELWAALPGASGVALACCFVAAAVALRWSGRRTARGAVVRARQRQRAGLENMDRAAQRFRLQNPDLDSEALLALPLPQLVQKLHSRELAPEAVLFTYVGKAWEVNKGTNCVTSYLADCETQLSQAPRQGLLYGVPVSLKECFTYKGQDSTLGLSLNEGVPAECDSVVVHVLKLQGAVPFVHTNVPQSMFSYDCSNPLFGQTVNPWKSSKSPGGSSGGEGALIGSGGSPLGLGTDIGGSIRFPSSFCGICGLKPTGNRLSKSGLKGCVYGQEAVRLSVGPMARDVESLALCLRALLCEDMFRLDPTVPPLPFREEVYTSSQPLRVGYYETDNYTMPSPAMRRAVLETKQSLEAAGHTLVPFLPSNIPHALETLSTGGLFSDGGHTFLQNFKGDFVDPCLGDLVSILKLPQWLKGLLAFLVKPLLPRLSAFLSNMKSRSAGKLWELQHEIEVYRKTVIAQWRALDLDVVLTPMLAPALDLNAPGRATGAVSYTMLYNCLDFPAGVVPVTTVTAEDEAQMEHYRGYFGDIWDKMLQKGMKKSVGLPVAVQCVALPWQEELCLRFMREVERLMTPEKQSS
The test can be described thus: FAAH counter-screen, AMC arachidonoyl amide substrate (Example B). Format: biochemical. Particulars: Method B; 20 uM AAMCA substrate. As to the method:
Comparative compound potency at FAAH can be obtained with the following assay.
MAGL inhibitor compounds were also counter-screened for FAAH inhibition potency using the following assay. Assessment of FAAH inhibition was performed using Fatty Acid Amide Hydrolase Inhibitor Screening Assay Kit (Cayman Item No. 10005196) following manufacture's instruction with some modifications. The kit utilizes human recombinant FAAH and the fluorescent substrate, AMC Arachidonoyl amide (AAMCA). […] 300 nL or 30 nL of test compounds were delivered into a 384-well black plate (Corning, 3573) using a Labcyte Echo, followed by addition of 15 μL of FAAH enzyme (Cayman, 700302) in assay buffer. After a 5-minute pre-incubation at room temperature, 10 μL of AAMCA was added in assay buffer to start the reaction. Final concentration of FAAH enzyme is not specified and AAMCA substrate was used at the 20 uM. After these dilutions, the final concentration of the test compounds ranged from 100 μM to 5.08 nM or 10 μM down to 0.508 nM. The reaction was allowed to progress for 60 minutes, while the plate was read on an Envision plate reader at an Ex/Em of 350/460 nm with readings every minute. The data was analyzed in Microsoft Excel, using the slope between 30 and 59 minutes. The average of the no-enzyme wells (background) was subtracted from the data. The background-subtracted slope data was converted to % activity using the average of wells with enzyme and DMSO vehicle. IC50 values were calculated using GraphPad software (Sigmoidal dose response, variable slope equation).
Compounds listed in Table D were tested in the FAAH Counter-screen of Example B.
(In general: Counterscreens check selectivity or assay interference.)

In the next test the target is T3, Flag-tagged MAGL enzyme (Homo sapiens, UniProt Q99685).
T3 sequence (Q99685 1-303): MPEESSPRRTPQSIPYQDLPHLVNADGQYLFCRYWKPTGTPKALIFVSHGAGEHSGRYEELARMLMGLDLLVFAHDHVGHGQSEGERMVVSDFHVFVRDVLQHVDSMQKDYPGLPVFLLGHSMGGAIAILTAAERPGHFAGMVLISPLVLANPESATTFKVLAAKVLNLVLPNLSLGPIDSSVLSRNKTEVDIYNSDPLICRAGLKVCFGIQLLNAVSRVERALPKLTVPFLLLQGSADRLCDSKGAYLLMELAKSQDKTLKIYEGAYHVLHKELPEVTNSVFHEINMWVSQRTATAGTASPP
Kind of test: Reversible MAGL inhibition, washout of immobilized Flag-tagged MAGL enzyme (Example C). To be noted: for activity at 1 µM: 0.5 h, relative to control (no inhibitor before washout), immediately following a 30 minute washout, pre-washout 1 μM, read-out: % MAGL activity returning after washout; for degree to which MAGL enzymatic activity returned following washout: pre-washout compound concentration 1 μM. The format is biochemical. As to the method:
The reversible mechanism of MAGL inhibition of a test compound of Formula (I) can be determined. Flag-tagged MAGL enzyme will be immobilized on anti-Flag beads Immobilized enzyme will be incubated+/−inhibitor at a dose that produces complete inhibition. Colorimetric substrate (4-NPA) will be added and the reaction monitored on a plate reader for 30 minutes to verify complete inhibition. Immobilized enzyme will then be washed thoroughly to remove the inhibitor, and fresh substrate will be added. The reaction will be monitored for an additional 30 minutes; returning enzymatic activity will indicate reversibility of inhibition.
For some test compounds, % activity returning after washout may be less than 100% if complete compound unbinding takes longer than 30 minutes.

Test [1] deals with brain and peripheral 2-AG; brain AA. To be noted: irreversible MAGL inhibition; cited from earlier work.

SMILES strings stand for the structures.

As for `O=C(c1cc(O)ccc1F)N1CC2(CC(n3nc(-c4ccc[nH]c4=O)cc3C(F)(F)F)C2)C1` [Compound 12, 3-(1-{2-(2-fluoro-5-hydroxybenzoyl)-2-aza-6-spiro[3.3]heptyl}-5-(trifluoromethyl)-3-pyrazolyl)-2(1H)-pyridinone], the IC50 was under 0.05 µM at human MAGL and over 10 µM on human recombinant FAAH. Moreover, the activity at 1 µM at Flag-tagged MAGL enzyme was over 50%. Also, the degree to which MAGL enzymatic activity returned following washout on Flag-tagged MAGL enzyme is 135%.

For the compound `COc1ncccc1-c1cc(C(F)(F)F)n(C2CC3(C2)CN(C(=O)c2cc(O)ccc2F)C3)n1` [Compound 15, (2-fluoro-5-hydroxyphenyl)(6-(3-(2-methoxypyridin-3-yl)-5-(trifluoromethyl)-1H1-pyrazol-1-yl)-2-azaspiro[3.3]heptan-2-yl)methanone], the IC50 on human MAGL was under 0.05 µM. The IC50 at human recombinant FAAH is over 10 µM. Besides, on Flag-tagged MAGL enzyme, the activity at 1 µM was over 50% and the degree to which MAGL enzymatic activity returned following washout came to 99%.

Take `COc1ccc(-c2cc(C(F)(F)F)n(C3CC4(C3)CN(C(=O)c3cc(O)ccc3F)C4)n2)cn1` [Compound 17, (2-fluoro-5-hydroxyphenyl) (6-(3-(6-methoxypyridin-3-yl)-5-(trifluoromethyl)-1H-pyrazol-1-yl)-2-azaspiro [3.3]heptan-2-yl) methanone]: the IC50 at human MAGL was under 0.05 µM. On human recombinant FAAH, the IC50 is over 10 µM. Besides, on Flag-tagged MAGL enzyme, the activity at 1 µM was over 50% and the degree to which MAGL enzymatic activity returned following washout is 89%.

`O=C(Oc1ccc([N+](=O)[O-])cc1)N1CCC(C(O)(c2ccc3c(c2)OCO3)c2ccc3c(c2)OCO3)CC1` [JZL-184, reference compound]: on Flag-tagged MAGL enzyme, the activity at 1 µM is under 1% and the “degree to which MAGL enzymatic activity returned following washout” value was “complete lack of return of MAGL enzymatic activity”. Further, in test [1], the “brain AA” value is on record as “reduce”; the “brain and peripheral 2-AG” value is “increase”.
